Measurements as given in patent US20050058600A1, “3,3'-Diindolylmethane antiandrogenic compositions” (priority 2003, published 2005).

Columns and labels:
AR = target: T1, AR (Homo sapiens, UniProt P10275, T878A); assay: MMTV-Luc / pPSA-Luc reporter assay in LNCaP cells; format: cell-based
T1 construct: 95 μL of either LNCaP cell extracts or recombinant AR protein; endogenous in cells; host or cells: LNCaP
T1 sequence (P10275 1-920 T878A): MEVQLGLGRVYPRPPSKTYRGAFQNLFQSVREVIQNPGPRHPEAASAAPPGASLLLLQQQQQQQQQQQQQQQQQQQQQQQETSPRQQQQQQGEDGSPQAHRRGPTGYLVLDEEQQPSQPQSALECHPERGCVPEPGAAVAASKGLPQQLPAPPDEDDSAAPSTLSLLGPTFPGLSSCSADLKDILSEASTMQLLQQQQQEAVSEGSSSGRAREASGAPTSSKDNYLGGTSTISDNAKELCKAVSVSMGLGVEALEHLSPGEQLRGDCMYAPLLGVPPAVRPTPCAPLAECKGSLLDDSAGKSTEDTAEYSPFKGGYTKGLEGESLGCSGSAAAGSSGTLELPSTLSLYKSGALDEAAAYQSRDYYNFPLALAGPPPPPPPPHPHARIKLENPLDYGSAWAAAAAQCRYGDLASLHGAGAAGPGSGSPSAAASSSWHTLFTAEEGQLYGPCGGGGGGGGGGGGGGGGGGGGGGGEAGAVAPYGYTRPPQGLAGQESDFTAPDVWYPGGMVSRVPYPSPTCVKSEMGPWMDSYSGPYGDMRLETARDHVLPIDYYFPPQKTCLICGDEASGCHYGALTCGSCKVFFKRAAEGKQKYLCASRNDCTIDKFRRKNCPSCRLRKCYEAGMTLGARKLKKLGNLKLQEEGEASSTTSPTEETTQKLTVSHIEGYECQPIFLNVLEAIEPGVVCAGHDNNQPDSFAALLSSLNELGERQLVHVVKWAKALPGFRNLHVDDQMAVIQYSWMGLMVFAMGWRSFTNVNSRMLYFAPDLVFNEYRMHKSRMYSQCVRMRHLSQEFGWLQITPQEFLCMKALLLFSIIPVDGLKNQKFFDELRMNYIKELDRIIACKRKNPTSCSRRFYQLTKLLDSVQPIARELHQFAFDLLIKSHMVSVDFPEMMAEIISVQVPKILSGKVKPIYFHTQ
Procedure: Plasmid Reporters and Expression Vectors. The ARE responsive luciferase reporter plasmid, pPSA-630 luciferase (pPSA-Luc) was prepared as previously described (29). pPSA-Luc contains the PSA promoter region (−630 to 12) with three AREs, all of which are critical to the activity of the pPSA-Luc promoter. The MMTV-Luc contains one consensus ARE and the expression vector, pCMV-hAR constitutively expresses a fully functional human androgen receptor. The pCMV-GFP-rAR was prepared as previously described (30).
Transient Transfections with Reporters and Luciferase Assay. LNCaP and PC-3 cells were transfected, with some modifications, as previously described (20). For AR transactivation, cells were transfected with 0.1 μg of MMTV-Luc or pPSA-Luc per plate. Co-transfection experiments with pCMV-hAR or pCMV-GFP-rAR, 0.1 μg per plate was also used. For experiments involving GFP fluorescence imaging, treatments were not added until 30 h after transfection.

LNCaP cells = assay: [3H]Thymidine incorporation (DNA synthesis) in LNCaP cells; format: cell-based, human; details: uninduced and androgen-induced (1 nM DHT) growth conditions

inhibition at 1 µM (AR; read-out: inhibition of DHT induction of androgen-responsive genes, 1 μM, both MMTV-Luc and pPSA-Luc): > 50% | inhibition at 10 µM (AR; read-out: inhibition of DHT induction of androgen-responsive genes, 10 μM, both MMTV-Luc and pPSA-Luc): > 90% | transactivation of reporter genes by compound alone (AR; without DHT): failed to induce transactivation
Compound: c1ccc2c(Cc3c[nH]c4ccccc34)c[nH]c2c1 [DIM, 3,3′-diindolylmethane]
inhibition of DNA synthesis (LNCaP cells): up to 90%
